Assay [1] deals with cultured human mast cells (CHMC). Kind of assay: CHMC low cell density IgE activation: tryptase assay. It counts as cell-based. As to conditions: IgE activation. The gist of the method:
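CHMC were seeded at 1000–1500 cells/well in MT buffer and incubated 1 hr at 37 °C. They were then stimulated with anti-IgE for 30 min at 37 °C, with unstimulated wells as controls. Released tryptase in the supernatant was measured with a fluorogenic substrate after 30 min at room temperature.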

Assay [2] shares this test system. Kind of assay: CHMC low cell density ionomycin activation: tryptase assay. The assay is classed as cell-based. The conditions noted are these: 3 pt, read-out: LD Tryptase, CHMC, Iono, 3 pt.
Setting [3] is: Homo sapiens, Mast cell, low cell density CHMC, tryptase release, 3 pt, read-out: LD Tryptase, CHMC, IgE, 3 pt.
[4] abbreviates: Homo sapiens, Mast cell, low cell density CHMC, tryptase release.
Where [5] appears, read: Homo sapiens, Mast cell, low cell density CHMC, tryptase release, 8 pt, read-out: LD Tryptase, CHMC, IgE, 8 pt.
Setting [6] is: Homo sapiens, Mast cell, low cell density, 3 pt, read-out: LD Tryptase, CHMC, IgE, 3 pt.
Where [7] appears, read: Homo sapiens, Mast cell, low cell density, 8 pt, read-out: LD Tryptase, CHMC, IgE, 8 pt.
Where [8] appears, read: Homo sapiens, Mast cell, low cell density.
Setting [9] is: low cell density, 3 pt, read-out: LD Tryptase, CHMC, IgE, 3 pt.
The mark [10] stands for this setting: low cell density CHMC, tryptase readout, 3 pt, read-out: LD Tryptase, CHMC, IgE, 3 pt.
The mark [11] stands for this setting: low cell density CHMC, tryptase readout, 8 pt, read-out: LD Tryptase, CHMC, IgE, 8 pt.
Setting [12] is: low cell density CHMC, tryptase readout.

The structures appear in SMILES notation. Structures can show the parent of a compound that is named as a salt. Some results are limits rather than exact numbers.

As to `COc1ccc(Nc2nc(Nc3ccc4c(cnn4CCCO)c3)ncc2F)cc1Cl` [Compound 827, N4-(3-Chloro-4-methoxyphenyl)-5-fluoro-N2-[1-(3-hydroxypropyl)indazol-5-yl]-2,4-pyrimidinediamine p-Toluenesulfonic Acid Salt], the figures for the IC50 in assay [1] (setting [3]) and in assay [2] (setting [4]) were less than 10 µM and greater than 10 µM, respectively.
For the compound `COc1ccc(Nc2nc(Nc3ccc4c(cnn4CCCNS(C)(=O)=O)c3)ncc2F)cc1Cl` [Compound 832, N4-(3-Chloro-4-methoxyphenyl)-5-fluoro-N2-[1-[3-(N-methylsulfonylamino)propyl]indazol-5-yl]-2,4-pyrimidinediamine], the IC50 in assay [1] (setting [3]) is less than 10 µM; in assay [1] (setting [5]), less than 10 µM; in assay [2] (setting [4]), greater than 10 µM.
As to `CS(=O)(=O)NCCCn1ncc2cc(Nc3ncc(F)c(Nc4ccc(Cl)c(Cl)c4)n3)ccc21` [Compound 833, N4-(3,4-Dichlorophenyl)-5-fluoro-N2-[1-[3-(N-methylsulfonylamino)propyl]indazol-5-yl]-2,4-pyrimidinediamine], the IC50 was less than 10 µM in assay [1] (setting [3]), less than 10 µM in assay [1] (setting [5]) and greater than 10 µM in assay [2] (setting [4]).
Turning to `CC1(C)Oc2ccc(Nc3nc(Nc4ccc5c(cnn5CCCNS(C)(=O)=O)c4)ncc3F)cc2NC1=O` [Compound 834, N4-(2,2-Dimethyl-3-oxo-4H-benz[1,4]oxazin-6-yl)-5-fluoro-N2-[1-[3-(N-methylsulfonylamino)propyl]indazol-5-yl]-2,4-pyrimidinediamine], the values for the IC50 in assay [1] (setting [3]), in assay [1] (setting [5]) and in assay [2] (setting [4]) were greater than 10 µM, less than 10 µM and greater than 10 µM, respectively.
Consider `C[C@@H]1Oc2ccc(Nc3nc(Nc4ccc5c(cnn5CCCNS(C)(=O)=O)c4)ncc3F)cc2NC1=O` [Compound 835, (S)-5-Fluoro-N4-(2-methyl-3-oxo-2H,4H-benz[1,4]oxazin-6-yl)-N2-[1-(3-(N-methylsulfonylamino)propyl)indazol-5-yl]-2,4-pyrimidinediamine], for which the IC50 was less than 10 µM in assay [1] (setting [3]), less than 10 µM in assay [1] (setting [5]) and greater than 10 µM in assay [2] (setting [4]).
Turning to `CC1(C)Oc2ccc(Nc3nc(Nc4ccc5c(cnn5CCCNS(C)(=O)=O)c4)ncc3F)nc2NC1=O` [Compound 836, N4-(2,2-Dimethyl-3-oxo-4H-5-pyrid[1,4]oxazin-6-yl)-5-fluoro-N2-[1-[3-(N-methylsulfonylamino)propyl]indazol-5-yl]-2,4-pyrimidinediamine], the IC50 in assay [1] (low cell density CHMC, tryptase release, 3 pt, read-out: LD Tryptase, CHMC, IgE, 3 pt) is less than 10 µM; in assay [1] (low cell density CHMC, tryptase release, 8 pt, read-out: LD Tryptase, CHMC, IgE, 8 pt) it was less than 10 µM; in assay [2] (low cell density CHMC, tryptase release), greater than 10 µM.
`Cc1nc2ccc(Nc3ncc(F)c(Nc4ccc5c(n4)NC(=O)C(C)(C)O5)n3)cc2[nH]1` [Compound 845, N4-(2,2-Dimethyl-3-oxo-4H-5-pyrid[1,4]oxazin-6-yl)-5-fluoro-N2-(2-methyl-3H-benzimidazol-5-yl)-2,4-pyrimidinediamine]: the IC50 in assay [1] (setting [5]) and in assay [2] (setting [4]) was less than 10 µM each time.
As to `CC1(C)Oc2ccc(Nc3nc(Nc4ccc5[nH]c(C(F)(F)F)nc5c4)ncc3F)nc2NC1=O` [Compound 846, N4-(2,2-Dimethyl-3-oxo-4H-5-pyrid[1,4]oxazin-6-yl)-5-fluoro-N2-(2-trifluoromethyl-1H-benzimidazol-5-yl)-2,4-pyrimidinediamine], the IC50 in assay [1] (setting [5]) and in assay [2] (setting [4]) was less than 10 µM each time.
`Cn1ncc2ccc(Nc3ncc(F)c(Nc4ccc5c(c4)NC(=O)C(C)(C)O5)n3)cc21` [Compound 993, N4-(2,2-Dimethyl-3-oxo-4H-benz[1,4]oxazin-6-yl)-5-fluoro-N2-(1-methylindazol-6-yl)-2,4-pyrimidinediamine p-Toluenesulfonic Acid Salt]: the IC50 in assay [1] (setting [6]), in assay [1] (setting [7]) and in assay [2] (setting [8]) was less than 10 µM throughout.
Consider `Cc1cc(Nc2ncc(F)c(Nc3ccc4c(c3)OCCO4)n2)cc(Cl)c1O` [Compound 995, N2-(3-Chloro-4-hydroxy-5-methylphenyl)-N4-(3,4-ethylenedioxyphenyl)-5-fluoro-2,4-pyrimidinediamine], for which the IC50 in assay [1] (setting [6]), in assay [1] (setting [7]) and in assay [2] (setting [8]) was less than 10 µM in each case.
Regarding `Cc1cc(Nc2ncc(F)c(Nc3ccc4c(n3)NC(=O)C(C)(C)O4)n2)cc(Cl)c1O` [Compound 996, N2-(3-Chloro-4-hydroxy-5-methylphenyl)-N4-(2,2-dimethyl-3-oxo-4H-5-pyrid[1,4]oxazin-6-yl)-5-fluoro-2,4-pyrimidinediamine], the IC50 in assay [1] (setting [9]) is less than 10 µM; in assay [1] (low cell density, 8 pt, read-out: LD Tryptase, CHMC, IgE, 8 pt) it was less than 10 µM; in assay [2] (low cell density), greater than 10 µM.
In the case of `COc1c(C)cc(Nc2ncc(F)c(Nc3ccc4c(n3)NC(=O)C(C)(C)O4)n2)cc1C` [Compound 997, N2-(3,5-Dimethyl-4-methoxyphenyl)-N4-(2,2-dimethyl-3-oxo-4H-5-pyrid[1,4]oxazin-6-yl)-5-fluoro-2,4-pyrimidinediamine], the IC50 in assay [1] (setting [6]) was less than 10 µM; in assay [1] (setting [7]) it was less than 10 µM; in assay [2] (setting [8]) it was greater than 10 µM.
Turning to `COc1c(C)cc(Nc2ncc(F)c(Nc3ccc4c(c3)OCCO4)n2)cc1C` [Compound 998], the IC50 was less than 10 µM in assay [1] (setting [6]), less than 10 µM in assay [1] (setting [7]) and greater than 10 µM in assay [2] (setting [8]).
On to `COc1c(C)cc(Nc2ncc(F)c(Nc3ccc4c(c3)OCCO4)n2)cc1Cl` [Compound 999], for which the IC50 in assay [1] (setting [6]), in assay [1] (setting [7]) and in assay [2] (setting [8]) was less than 10 µM in each case.
Consider `Cc1ccccc1Nc1ncc(F)c(Nc2ccc3c(n2)NC(=O)C(C)(C)O3)n1` [Compound 1004, N4-(2,2-Dimethyl-3-oxo-4H-5-pyrid[1,4]oxazin-6-yl)-5-fluoro-N2-(2-methylphenyl)-2,4-pyrimidinediamine], for which the figures for the IC50 in assay [1] (setting [9]) and in assay [2] (low cell density) were less than 10 µM and greater than 10 µM, respectively.
In the case of `CN1C(=O)C(C)(C)Oc2ccc(N(C)c3nc(Cl)ncc3F)nc21` [Compound 1005, 2-Chloro-5-fluoro-N4-methyl-N4-(3-oxo-2,2,4-trimethyl-5-pyrid[1,4]oxazin-6-yl)-4-pyrimidineamine], the IC50 is less than 10 µM in assay [1] (setting [9]) and greater than 10 µM in assay [2] (low cell density).
The corresponding values for `CN1C(=O)C(C)(C)Oc2ccc(Nc3nc(Cl)ncc3F)nc21` [Compound 1006, 2-Chloro-5-fluoro-N4-(3-oxo-2,2,4-trimethyl-5-pyrid[1,4]oxazin-6-yl)-4-pyrimidineamine] are greater than 10 µM and greater than 10 µM.
As for `CCOc1c(C)cc(Nc2ncc(F)c(Nc3ccc4c(c3)NC(=O)C(C)(C)O4)n2)cc1Cl` [Compound 1008, N2-(3-Chloro-4-ethoxy-5-methylphenyl)-N4-(2,2-dimethyl-3-oxo-4H-benz[1,4]oxazin-6-yl)-5-fluoro-2,4-pyrimidinediamine], the IC50 in assay [1] (setting [6]), in assay [1] (setting [7]) and in assay [2] (setting [8]) was less than 10 µM in each case.
With `COc1c(C)cc(Nc2ncc(F)c(Nc3ccc4c(n3)N(C)C(=O)C(C)(C)O4)n2)cc1Cl` [Compound 1009, N2-(3-Chloro-4-methoxy-5-methylphenyl)-5-fluoro-N4-(3-oxo-2,2,4-trimethyl-5-pyrid[1,4]oxazin-6-yl)-2,4-pyrimidinediamine], the values for the IC50 in assay [1] (setting [10]), in assay [1] (setting [11]) and in assay [2] (setting [12]) were less than 10 µM, less than 10 µM and greater than 10 µM, respectively.
On to `CCOc1c(C)cc(Nc2ncc(F)c(Nc3ccc4c(n3)NC(=O)C(C)(C)O4)n2)cc1Cl` [Compound 1010, N2-(3-Chloro-4-ethoxy-5-methylphenyl)-N4-(2,2-dimethyl-3-oxo-4H-5-pyrid[1,4]oxazin-6-yl)-5-fluoro-2,4-pyrimidinediamine], for which the IC50 in assay [1] (setting [10]) was less than 10 µM; in assay [2] (setting [12]), greater than 10 µM.
`CC1(C)Oc2ccc(Nc3nc(Nc4ccc(-c5ncco5)cc4)ncc3F)cc2NC1=O` [Compound 1011, N4-(2,2-Dimethyl-3-oxo-4H-benz[1,4]oxazin-6-yl)-5-fluoro-N2-[4-(oxazol-2-yl)phenyl]-2,4-pyrimidinediamine]: the IC50 was less than 10 µM in assay [1] (Homo sapiens, Mast cell, low cell density CHMC, tryptase readout, 3 pt, read-out: LD Tryptase, CHMC, IgE, 3 pt); less than 10 µM in assay [1] (Homo sapiens, Mast cell, low cell density CHMC, tryptase readout, 8 pt, read-out: LD Tryptase, CHMC, IgE, 8 pt); greater than 10 µM in assay [2] (Homo sapiens, Mast cell, low cell density CHMC, tryptase readout).
With `CN1C(=O)C(C)(C)Oc2ccc(Nc3nc(Nc4cccc(-c5ncco5)c4)ncc3F)nc21` [Compound 1012, 5-Fluoro-N2-[3-(oxazol-2-yl)phenyl]-N4-[3-oxo-2,2,4-trimethyl-5-pyrid[1,4]oxazin-6-yl]-2,4-pyrimidinediamine], the IC50 in assay [1] (setting [10]) is less than 10 µM; in assay [1] (setting [11]), less than 10 µM; in assay [2] (setting [12]), greater than 10 µM.
Turning to `CN1C(=O)C(C)(C)Oc2ccc(Nc3nc(Nc4ccc(-c5ncco5)cc4)ncc3F)nc21` [Compound 1013, 5-Fluoro-N2-[4-(oxazol-2-yl)phenyl]-N4-[3-oxo-2,2,4-trimethyl-5-pyrid[1,4]oxazin-6-yl]-2,4-pyrimidinediamine], the IC50 is less than 10 µM in assay [1] (setting [10]) and greater than 10 µM in assay [2] (setting [12]).

Values taken from patent US20220073536A1 (Rigel Pharmaceuticals, Inc., priority 2003, published 2022).
